# Where a SMILES comes first, the peptide text is derived from it. The star is where a group is joined. Cbz = O=C(OCc1ccccc1)*; OtBu = CC(C)(C)O*; CH2F = FC*
# Tests used:
# H4 neuroglioma cells = assay: Proteasome-induced toxicity, Western blot; assay type: cell-based
# Experimental: H4 neuroglioma cells were grown in Opti-Mem plus 10% FBS and 1% pen-strep. Cells were plated in 6-well plates and at 90% confluency treated with 10 μM proteasome inhibitor I (PSI) (EMD Chemicals, Inc. San Diego, Calif.) or 100 μM pan-caspase inhibitor (Z-VAD-FMK) (EMD Chemicals, Inc. San Diego, Calif.) separately or in combination. Twenty-four hours after treatment, the cells were harvested for subsequent Western blot analysis in the Co-IP buffer (50 mM Tris-HCl, pH 7.4, 1 M NaCl, 1% Triton-X-100, 5 mM EDTA) plus 1% SDS, PMSF, and protease and phosphatase inhibitors.
# Protein concentrations of cells lysates were measured by a standard BCA assay (Pierce, Rockford, Ill.). Then, the samples were heated in Laemmli's buffer, and equal amounts of protein were loaded into 10-well 10% or 4-20% Tris-glycine gels (Novex, San Diego, Calif.). After transfer, blots were blocked with 5% nonfat dry milk in TBST ([…]) for 1 hour, and then incubated with rabbit polyclonal TDP-43 antibody (1:500; ProteinTech Group, Inc, Chicago, Ill.), rabbit polyclonal caspase-3 antibody (1:1000; Cell Signaling, Beverly, Mass.), HSP70 (1:2000; Stressgen, Ann Arbor, Mich.), GADPH (1:5000; Biodesign International, Kennebunkport, Me.), or mouse monoclonal β-actin antibody (1:5000, Sigma, Saint Louis, Miss.) overnight at 4° C. Membranes were washed three times each for 10 minutes with TBST and then incubated with anti-mouse or anti-rabbit IgG conjugated to horseradish peroxidase (1:2000; Jackson ImmunoResearch, West Grove, Pa.) for 1 hour. Membranes were then washed three times each for 10 minutes, and protein expression was visualized by ECL treatment and exposure to film.
# HEK293 cells = assay: Inclusion formation and distribution of GFP-TDP-43 constructs, confocal microscopy; assay type: cell-based; settings: for cellular distribution: HEK293, confocal fluorescence microscopy
# Experimental: HEK293 cells, grown on glass coverslips, were transfected with 0.3 μg of expression vector (GFP, GFP-TDP-43, GFP-TDP-43-caspase-resistant, GFP-TDP-35, GFP-TDP-25, or GFP-TDP-ΔNR1) by using Lipofectamine 2000 (Invitrogen) according to the manufacturer's instructions then subjected to immunofluorescence analysis 48 hours later. To determine if the cytoplasmic inclusion were insoluble, some cells were treated with 0.2% Triton X-100 prior to fixation, in order to remove soluble protein. To determine if the formation of inclusion was aggresome-dependent, some cells were treated with 1 μM nocodazole (Sigma) for 24 hours after 6 hours of transfection. Finally, to examine if inclusions were ubiquitinated, cells were cotransfected with 0.3 μg of a TDP-43 construct and 0.5 μg HA-ubiquitin, then subjected to immunofluorescence analysis 72 hours later.
# (§1) The cultured HEK293 and differentiated M17 cells were fixed with 4% paraformaldehyde in phosphate-buffered saline (PBS) at 4° C. for 15 minutes and permeabilized with PBS-0.5% Triton X-100 for 10 minutes. After blocking with 5% BSA for 1 hour at 37° C., the cells were incubated overnight at 4° C. with mouse monoclonal HA antibody (1:1000, Roche Applied Science), rabbit polyclonal activated caspase-3 antibody (1:250, Cell Signaling), rabbit polyclonal anti-pTDP-43 (which detects phosphorylated S409/S410; 1:1000, COSMO BIO CO., LTD), mouse monoclonal Flag antibody (1:1000, Sigma), rabbit polyclonal M2085 (1:1000), or rabbit polyclonal M2079 (1:1000). After washing, cells were incubated with the Alexa 568-conjugated goat anti-mouse IgG secondary antibody (1:1000, Molecular Probes) or anti-rabbit IgG secondary antibody (1:500, Molecular Probes) at 37° C. for 2 hours. Finally, Hoechst 33258 (1 μg/mL, Invitrogen) was used to stain the nuclei. Images were obtained on a Zeiss LSM 510 META confocal microscope.
# hnRNPA2 = target: T1, hnRNPA2 (Homo sapiens, UniProt P22626); assay: Co-immunoprecipitation with Flag-tagged hnRNPA2; assay type: binding; settings: HeLa cells, probing for GFP
# T1 construct: expressed in transfected cells; host or cells: HeLa cells
# Experimental: (§2) For co-immunoprecipitation studies, HeLa cells were transfected with 1 or 2 μg of each plasmid. Cells were harvested 48 hours later using Co-IP buffer (50 mM Tris-HCl, pH 7.4, 1 M NaCl, 1% Triton X-100, 5 mM EDTA) containing PMSF as well as protease and phosphatase inhibitors. The lysates were sonicated and centrifuged at 16,000 g for 20 minutes. The protein concentration of supernatants was determined by BCA assay (Thermo Scientific). Supernatant containing 500 μg of total protein was combined with Anti-Flag M2 agarose (Sigma) and incubated overnight at 4° C. with gentle shaking. The agarose was pelleted by centrifugation at 2,500 g for 5 minutes and washed with Co-IP buffer 6 times. Captured protein was eluted from the beads using loading buffer and resolved by SDS-PAGE for Western blot analysis.
# Flag-TDP-43 = target: T2, Flag-TDP-43 (Homo sapiens, UniProt Q13148); assay: Co-immunoprecipitation with Flag-TDP-43; assay type: binding; settings: HeLa cells, probing for GFP
# T2 construct: the exon skipping activity in cells overexpressing full-length TDP-43 was examined; expressed in transfected cells; host or cells: HeLa cells
# Experimental: as §2
# TDP-43 = assay: Proteolytic processing of TDP-43 and caspase-3, Western blot of HeLa and H4 cells; assay type: cell-based
# Experimental: For progranulin small interfering RNA (siRNA) transfections, siRNA was predesigned by QIAGEN (QIAGEN Inc, Valencia, Calif.) for GenBank Accession Number NM—001012479, and the sense sequence was 5′-r([sequence])dTdT-3′ (SEQ ID NO:5). siRNA experiments were carried out in 6-well plates. Final siRNA concentration (progranulin or a validated negative control siRNA) per well was 20 nM in Opti-Mem, with 4 μL of siLentFect transfection reagent (Bio-Rad, Hercules, Calif.) used per well. This mixture was incubated in a final volume of 500 μL for 20 minutes and then added to 40%-50% confluent HeLa and H4 cells in 6-well dishes plated the previous day for a final in-well volume of 2 mL. Seventy-two hours after transfection, cells were harvested for subsequent Western blot analysis in lysis buffer containing Co-IP buffer (50 mM Tris-HCl, pH 7.4, 1 M NaCl, 1% Triton-X-100, 5 mM EDTA) plus 1% SDS, PMSF, and both a protease and phosphatase inhibitor mixture. For caspase inhibitor treatment, the cells were transfected with progranulin siRNA for 24 hours, and then the pan-caspase inhibitor (Z-VAD-FMK) (EMD Chemicals, Inc. San Diego, Calif.) was added to cells for additional 48 hours at a final concentration of 100 μM. Cell lysates was prepared as described herein. […]
# Protein concentrations of cells lysates were measured by a standard BCA assay (Pierce, Rockford, Ill.). […]
# [1] = tested on: differentiated M17 neuroblastoma cells; assay: Toxicity assay (LDH release, activated caspase-3 staining); assay type: cell-based; settings: for activated caspase-3 staining: confocal microscopy; for LDH levels compared to cells expressing only GFP: medium collected 72 hours after transfection
# Experimental: M17 neuroblastoma cells, seeded at 2.5×10^3 cells per well in 24-well plates, were grown in Neurobasal A/B27 medium containing Glutamax (Invitrogen) and 10 μM retinoic acid (Sigma) to induce differentiation. Seven days later, cells were transfected with 0.2 μg of expression vector for 72 hours. The medium was collected, and a LDH assay (Promega) was used to measure LDH levels as an indicator of toxicity. Then, cells were fixed, and immunofluorescent staining was done using an antibody against activated caspase-3 (1:250; Cell signaling) and the nuclear marker, bisbenzimide (Hoechst 33258).
# as §1
# [2] = tested on: TDP-43 exon 9 skipping activity; assay: CFTR mini-gene splicing assay; assay type: cell-based; settings: for CFTR exon 9 exclusion (endogenous TDP-43 background): HeLa cells cotransfected with CFTR minigene, RT-PCR, compared to GFP; for exon skipping activity in cells overexpressing Flag-TDP-43: cotransfected with CFTR mini-gene and Flag-TDP-43
# Experimental: The CFTR mini-gene splicing assay was conducted as described elsewhere (Pagani et al., J. Biol. Chem., 275(28):21041-21047 (2000) and Ayala et al., FEBS Lett., 580(5):1339-1344 (2006)). In brief, Hela cells were co-transfected with 1 μg of minigene construct and 1 μg of GFP-fusion protein expression vector. […] Then, 2 μg of total RNA was used to synthesize cDNA using the SuperScript III First-Strand Synthesis System (Invitrogen). For the PCR, 2 μL of cDNA was used in a 20 μL of reaction according to the manufacturer's protocol for Taq PCR Core Kit (Qiagen). The amplification conditions consisted of an initial denaturation step at 94° C. for 3 minutes, followed by 30 cycles of 94° C. for 30 seconds, 62° C. for 60 seconds, and 72° C. for 90 seconds.
# HeLa or H4 cells = assay: Immunofluorescence and confocal microscopy of TDP-43 localization; assay type: cell-based; settings: 1 μM for 3 hours, in contrast to untreated cells
# [3] = co-treated with PSI 10 μM and caspase inhibitor 100 μM, 24 hours
# T2 sequence (Q13148 whole entry): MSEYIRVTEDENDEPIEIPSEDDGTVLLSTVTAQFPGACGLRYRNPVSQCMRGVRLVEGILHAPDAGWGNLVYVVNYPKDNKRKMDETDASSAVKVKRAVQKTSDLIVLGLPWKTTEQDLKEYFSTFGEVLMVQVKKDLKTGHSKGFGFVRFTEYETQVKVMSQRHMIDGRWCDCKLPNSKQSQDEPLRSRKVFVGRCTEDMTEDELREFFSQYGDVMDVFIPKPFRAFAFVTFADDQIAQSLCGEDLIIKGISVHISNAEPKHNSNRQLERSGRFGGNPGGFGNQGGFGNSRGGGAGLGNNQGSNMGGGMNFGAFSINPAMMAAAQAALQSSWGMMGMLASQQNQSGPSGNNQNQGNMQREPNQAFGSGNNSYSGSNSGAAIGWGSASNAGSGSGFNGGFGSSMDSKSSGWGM
# T1 sequence (P22626 1-341 isoform P22626-2, species assumed): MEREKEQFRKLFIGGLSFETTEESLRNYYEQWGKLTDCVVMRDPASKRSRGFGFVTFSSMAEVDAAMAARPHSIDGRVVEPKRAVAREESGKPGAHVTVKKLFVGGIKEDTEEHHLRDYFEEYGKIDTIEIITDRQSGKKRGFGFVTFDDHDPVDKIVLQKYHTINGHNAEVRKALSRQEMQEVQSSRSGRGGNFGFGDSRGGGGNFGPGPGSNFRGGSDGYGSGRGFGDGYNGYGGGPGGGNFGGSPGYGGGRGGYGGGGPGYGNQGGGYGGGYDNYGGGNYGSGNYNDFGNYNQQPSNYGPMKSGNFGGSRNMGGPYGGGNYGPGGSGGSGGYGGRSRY
compound,measurement,setting,value
CC[C@H](C)[C@H](NC(=O)OCc1ccccc1)C(=O)N[C@@H](CCC(=O)OC(C)(C)C)C(=O)N[C@@H](C)C(=O)N[C@H](C=O)CC(C)C [PSI] (Cbz-IE(OtBu)AL-aldehyde),HSP70 levels,"H4 neuroglioma cells; PSI 10 μM, 24 hours",increased
same,cleavage of endogenous cellular TDP-43,"H4 neuroglioma cells; PSI 10 μM, 24 hours",cleaved into ˜35 and ˜25 kD fragments
same,cleaved (active) caspase-3 levels,"H4 neuroglioma cells; PSI 10 μM, 24 hours",marked increase
same,full length TDP-43 band (˜43 kD),"H4 neuroglioma cells; PSI 10 μM, 24 hours",reduction
"COC(=O)Nc1nc2ccc(C(=O)c3cccs3)cc2[nH]1 [nocodazole, reference compound]",effect on inclusions formed by GFP-TDP-25 and GFP-TDP-35,HEK293 cells; 1 μM for 24 hours after 6 hours of transfection,not disrupted
GFP-TDP1-175: GFP-tagged C-terminal deletion mutant lacking the glycine rich region,binding to hnRNPA2,hnRNPA2,failed to bind
same,binding to Flag-TDP-43,Flag-TDP-43,bound strongly
COC(=O)C[C@H](NC(=O)[C@H](C)NC(=O)[C@@H](NC(=O)OCc1ccccc1)C(C)C)C(=O)CF [Z-VAD (OMe)-FMK] (Cbz-Val-Ala-Asp(OMe)-CH2F),caspase-3 activity,TDP-43; PGRN RNAi-treated HeLa cells plus pan-caspase inhibitor,suppresses
same,production of ˜35 and ˜25 kD TDP-43 fragments,"TDP-43; PGRN siRNA-treated cells, inhibitor 100 μM for additional 48 hours",inhibited
same,HSP70 levels,H4 neuroglioma cells; PSI plus caspase inhibitor,persisted
same,PSI-induced caspase-3 activity,H4 neuroglioma cells; [3],suppressed
same,generation of proteolytic TDP-43 fragments,H4 neuroglioma cells; [3],inhibited
GFP-TDP-43-caspase-resistant: GFP-tagged TDP-43 with aspartic acid at positions 89 and 219 substituted to glutamic acid,cellular distribution,HEK293 cells,localized almost exclusively to the nucleus
same,activated caspase-3 staining,[1],did not stain
same,LDH levels compared to cells expressing only GFP,[1],comparably increased
GFP-TDP-43: full-length wild-type TDP-43 tagged at the amino terminal with enhanced GFP,cellular distribution,HEK293 cells,localized almost exclusively to the nucleus
same,activated caspase-3 staining,[1],did not stain
same,LDH levels compared to cells expressing only GFP,[1],comparably increased
same,CFTR exon 9 exclusion (endogenous TDP-43 background),[2],marked increase in exon exclusion
same,exon skipping activity in cells overexpressing Flag-TDP-43,[2],promoted exon 9 exclusion
same,binding to hnRNPA2,hnRNPA2,interact with hnRNPA2
same,binding to Flag-TDP-43,Flag-TDP-43,bound strongly
GFP-TDP76-414: GFP-tagged second C-terminal fragment (76-414) that retains nuclear distribution,CFTR exon 9 exclusion (endogenous TDP-43 background),[2],did not promote exon 9 exclusion
same,exon skipping activity in cells overexpressing Flag-TDP-43,[2],markedly reduced
same,binding to hnRNPA2,hnRNPA2,did indeed interact
same,binding to Flag-TDP-43,Flag-TDP-43,only weakly interacted
GFP-TDP1-257: GFP-tagged C-terminal deletion product of TDP-43,binding to Flag-TDP-43,Flag-TDP-43,bound strongly
CN[C@@H]1C[C@H]2O[C@@](C)([C@@H]1OC)n1c3ccccc3c3c4c(c5c6ccccc6n2c5c31)C(=O)NC4 [staurosporine],TDP-43 cellular localization,HeLa or H4 cells,increased cytoplasmic TDP-43 staining

# Source: patent publication US20100136573A1, “DIAGNOSING NEURODEGENERATIVE DISEASES” (priority 2007, published 2010)
